Test: xn = mol fraction of the nth substance listed
Settings: Liquid; for speed of sound: 100 kPa, Linear variable-path acoustic interferometer; for viscosity / mass density: 101.3 kPa; for viscosity: Capillary tube (Ostwald / Ubbelohde) method; for mass density: Pycnometric method

NC=O [formamide] + CC#N
Settings | mass density, 298.15 K [kg/m3] | mass density, 308.15 K [kg/m3] | mass density, 318.15 K [kg/m3] | speed of sound, 298.15 K [m/s] | viscosity, 298.15 K [mPa·s] | viscosity, 308.15 K [mPa·s] | viscosity, 318.15 K [mPa·s]
x1 = 0.0919 | 803.8 | 794.9 | 785.6 | 1277.7 | 0.402 | 0.366 | 0.339
x1 = 0.1856 | 832.8 | 824.1 | 815.8 | 1299.6 | 0.485 | 0.432 | 0.396
x1 = 0.2809 | 863.4 | 855.1 | 847.4 | 1322.8 | 0.593 | 0.522 | 0.472
x1 = 0.3779 | 895.8 | 887.4 | 879.9 | 1349.6 | 0.733 | 0.635 | 0.565
x1 = 0.4768 | 929.2 | 921.2 | 914 | 1380.8 | 0.921 | 0.786 | 0.687
x1 = 0.5775 | 965.2 | 956.6 | 950.7 | 1412.8 | 1.168 | 0.978 | 0.847
x1 = 0.6802 | 1002.9 | 994.4 | 989.4 | 1449 | 1.507 | 1.239 | 1.046
x1 = 0.7847 | 1042.6 | 1034.7 | 1029.3 | 1488.8 | 1.945 | 1.569 | 1.295
x1 = 0.8913 | 1085.1 | 1076.9 | 1071.6 | 1529.8 | 2.54 | 1.999 | 1.615
x1 = 1 | 1129.2 | 1120.5 | 1111.1 | 1591.3 | 3.302 | 2.542 | 2.001

NC=O [formamide] + COCCO
Settings | mass density, 298.15 K [kg/m3] | mass density, 308.15 K [kg/m3] | mass density, 318.15 K [kg/m3] | speed of sound, 298.15 K [m/s] | viscosity, 298.15 K [mPa·s] | viscosity, 308.15 K [mPa·s] | viscosity, 318.15 K [mPa·s]
x1 = 0.1581 | 977 | 969.1 | 963.5 | 1353.6 | 1.912 | 1.515 | 1.225
x1 = 0.2969 | 994.2 | 986.2 | 980.3 | 1373.7 | 2.291 | 1.759 | 1.394
x1 = 0.4199 | 1010.9 | 1002.8 | 996.5 | 1397.5 | 2.659 | 1.997 | 1.561
x1 = 0.5297 | 1027.6 | 1019.4 | 1012.8 | 1423.8 | 2.963 | 2.206 | 1.709
x1 = 0.6282 | 1044.1 | 1035.9 | 1029.1 | 1451.1 | 3.173 | 2.367 | 1.831
x1 = 0.7171 | 1060.2 | 1052.3 | 1045.3 | 1478.3 | 3.331 | 2.485 | 1.929
x1 = 0.7977 | 1076.7 | 1068.7 | 1061.5 | 1506 | 3.395 | 2.541 | 1.978
x1 = 0.8711 | 1093.8 | 1085.7 | 1078.1 | 1533.9 | 3.399 | 2.562 | 2.016
x1 = 0.9383 | 1111.1 | 1102.9 | 1094.6 | 1564.3 | 3.348 | 2.55 | 2.003
x1 = 1 | 1129.2 | 1120.5 | 1111.1 | 1591.3 | 3.302 | 2.542 | 2.001

NC=O [formamide] + C[S+](C)[O-]
Settings | mass density, 298.15 K [kg/m3] | mass density, 308.15 K [kg/m3] | mass density, 318.15 K [kg/m3] | speed of sound, 298.15 K [m/s] | viscosity, 298.15 K [mPa·s] | viscosity, 308.15 K [mPa·s] | viscosity, 318.15 K [mPa·s]
x1 = 0.1616 | 1099.3 | 1090.7 | 1082.7 | 1480.1 | 2.457 | 1.859 | 1.64
x1 = 0.3025 | 1102.8 | 1094.9 | 1087.3 | 1480.6 | 2.868 | 2.135 | 1.823
x1 = 0.4264 | 1106.3 | 1098.5 | 1090.9 | 1483.9 | 3.214 | 2.365 | 1.968
x1 = 0.5363 | 1109.5 | 1101.6 | 1093.9 | 1492.3 | 3.468 | 2.52 | 2.059
x1 = 0.6343 | 1112.6 | 1104.6 | 1096.7 | 1502.9 | 3.608 | 2.621 | 2.112
x1 = 0.7224 | 1115.8 | 1107.6 | 1099.5 | 1512.7 | 3.652 | 2.653 | 2.118
x1 = 0.8019 | 1119.1 | 1110.7 | 1102.3 | 1526.4 | 3.626 | 2.639 | 2.083
x1 = 0.874 | 1122.5 | 1113.9 | 1105.3 | 1543.7 | 3.54 | 2.613 | 2.054
x1 = 0.9398 | 1125.8 | 1117.2 | 1108.2 | 1561.2 | 3.426 | 2.571 | 2.021
x1 = 1 | 1129.2 | 1120.5 | 1111.1 | 1591.3 | 3.302 | 2.542 | 2.001

— the NIST ThermoML archive (doi:10.1021/je700026d)
